Measured values as given in patent US4485110A, “β-Lactam compounds, and use” (priority 1980, dated 1984).
Read-outs that look alike come from different tables or passages of the source.

Legend:
Assay in all cases: Antibacterial activity, broth MIC
Format in all cases: cell-based
B. subtilis A = conditions: Bacillus subtilis, compound alone
Excerpt: (§1) The antibacterial activity of a number of compounds described in the foregoing Examples against a number of organisms is shown in Tables 1 and 10.

C. freundii E 8 = conditions: Citrobacter freundii
Excerpt: as §1

E. cloacae N 1 = conditions: Enterobacter cloacae, N1, compound alone
Excerpt: as §1

E. coli 0111 = conditions: Escherichia coli, compound alone
Excerpt: as §1

E. coli ESS = conditions: Escherichia coli; compound alone, broth; read-out: Broth MIC
Excerpt: as §1

E. coli JT 39 R^+ = conditions: Escherichia coli; compound alone, broth; read-out: Broth MIC
Excerpt: as §1

K. aerogenes A = conditions: Klebsiella aerogenes; compound alone, broth; read-out: Broth MIC
Excerpt: as §1

P. aeruginosa A = conditions: Pseudomonas aeruginosa, compound alone
Excerpt: as §1

P. mirabilis 977 = conditions: Proteus mirabilis, compound alone
Excerpt: as §1

P. morganii I 580 = conditions: Morganella morganii, I580, compound alone
Excerpt: as §1

P. rettgeri WM 16 = conditions: Providencia rettgeri, WM16, compound alone
Excerpt: as §1

P. vulgaris WO 91 = conditions: Proteus vulgaris, WO91, compound alone
Excerpt: as §1

S. aureus 1517 = conditions: Staphylococcus aureus, compound alone
Excerpt: as §1

S. aureus Oxford = conditions: Staphylococcus aureus, compound alone
Excerpt: as §1

S. aureus Russell = conditions: Staphylococcus aureus, compound alone
Excerpt: as §1

S. faecalis I = conditions: Enterococcus faecalis, read-out: Broth MIC
Excerpt: as §1

S. marcescens US 20 = conditions: Serratia marcescens
Excerpt: as §1

S. pneumoniae CN 33 = conditions: Streptococcus pneumoniae, CN33, compound alone
Excerpt: as §1

S. pyogenes CN 10 = conditions: Streptococcus pyogenes, CN10, compound alone
Excerpt: as §1

S. sonnei MB 11967 = conditions: Shigella sonnei, MB11967, compound alone
Excerpt: as §1

S. typhimurium CT 10 = conditions: Salmonella enterica, compound alone
Excerpt: as §1

[1] = E8, compound alone, broth, read-out: Broth MIC
[2] = US20, compound alone, broth, read-out: Broth MIC

| Structure (SMILES) | MIC (B. subtilis A) [µg/mL] | MIC (C. freundii E 8; [1]) [µg/mL] | MIC (E. cloacae N 1) [µg/mL] | MIC (E. coli 0111) [µg/mL] | MIC (E. coli ESS) [µg/mL] | MIC (E. coli JT 39 R^+) [µg/mL] | MIC (K. aerogenes A) [µg/mL] | MIC (P. aeruginosa A) [µg/mL] | MIC (P. mirabilis 977) [µg/mL] | MIC (P. morganii I 580) [µg/mL] | MIC (P. rettgeri WM 16) [µg/mL] | MIC (P. vulgaris WO 91) [µg/mL] | MIC (S. aureus 1517) [µg/mL] | MIC (S. aureus Oxford) [µg/mL] | MIC (S. aureus Russell) [µg/mL] | MIC (S. faecalis I; compound alone, broth) [µg/mL] | MIC (S. marcescens US 20; [2]) [µg/mL] | MIC (S. pneumoniae CN 33) [µg/mL] | MIC (S. sonnei MB 11967) [µg/mL] | MIC (S. typhimurium CT 10) [µg/mL] | further results |
| --- | --- | --- | --- | --- | --- | --- | --- | --- | --- | --- | --- | --- | --- | --- | --- | --- | --- | --- | --- | --- | --- |
| CC=C1C(=O)N2C(C(=O)O)=C([S+]([O-])CC)SC12 (racemic) [Compound 103, (5RS)-Sodium 6-Ethylidene-2-ethylsulphinylpenem-3-carboxylate] | 25 | > 100 | > 100 | > 100 | 100 | > 100 | > 100 | > 100 | 100 | > 100 | > 100 | > 100 | > 100 | 50 | > 100 | > 100 | > 100 | 25 | > 100 | > 100 | MIC (S. pyogenes CN 10): 12.5 µg/mL |
| C/C=C1\C(=O)N2C(C(=O)O)=C(SCC)SC12 (racemic) [Compound 29, (5RS)-Sodium (E)-6-Ethylidene-2-ethylthiopenem-3-carboxylate] | 2 | 62 | 31 | 31 | 2 | 31 | 16 | > 500 | 125 | 31 | 62 | 62 | 16 | 2 |  | 250 | 62 | 1 | 62 | 62 | MIC (S. pyogenes CN 10): 4 µg/mL |
| C/C=C1/C(=O)N2C(C(=O)O)=C(CCC)SC12 (racemic) [Compound 49, (5RS)-Sodium(Z)-6-Ethylidene-2-n-propylpenem-3-carboxylate] | 1 |  | 62 | 125 | 1 | 62 | 31 | > 250 | 62 | 31 | 62 | 62 | 62 | 1 | 2 |  |  | ≤ 0.2 | 62 | 62 | MIC (C. freundii E 8; E8, read-out: Broth MIC): 125 µg/mL; MIC (S. faecalis I): 125 µg/mL; MIC (S. marcescens US 20; US20, read-out: Broth MIC): 125 µg/mL |
| C/C=C1/C(=O)N2C(C(=O)O)=C(C)SC12 (racemic) [Compound 76, (5RS)-Sodium (Z)-Ethylidene-2-methylpenem-3-carboxylate] | 25 | 100 | > 100 | 100 | 6.2 | 100 | > 100 | 100 | 100 | 100 | > 100 | > 100 | 50 | 12.5 | 6.2 | > 100 | > 100 |  | 100 | 100 |  |
| CC=C1C(=O)N2C(C(=O)O)=C(Sc3ccccn3)SC12 (racemic) [Compound 99, (5RS)-Sodium 6-Ethylidene-2-(2-pyridylthio)penem-3-carboxylate] | 6.2 | 100 | 25 | 100 | 3.1 | 50 | 50 | > 100 | 100 | 50 | 25 | 50 | 100 | 12.5 | 6.2 | > 100 | 50 |  | 50 | 50 | MIC (S. pyogenes CN 10): 1.6 µg/mL |
